The values that follow are results of earlier work, collected in patent US20250025455A1, “CONTROLLED-RELEASE NICOTINE CHEWING GUM” (Altria Client Services LLC, priority 2023, published 2025).

For the series the following is noted: free base (non-protonated) nicotine.

Each structure is given as a SMILES string.

`CN1CCCC1c1cccnc1` (stereo not shown) [Free-base nicotine, 3-(1-methyl-2-pyrrolidinyl) pyridine]: the pKa value result is reported as “about 8”.
